In data set [1] the test system is S. aureus strains ATCC13709 and RN4220. In words: microbe, parasite or virus in culture. The data set is classed as cell-based. The following applies: Staphylococcus aureus, ATCC13709; CAMHB, 37° C., 18 h; data not shown; read-out: minimum inhibitory concentration (MIC). The method, then:
Susceptibility of S. aureus strains ATCC13709 and RN4220 to the commercial antibiotics and synthesized compounds was determined by following the guidelines set by the Clinical and Laboratory Standards Institute (formerly the National Committee for Clinical Laboratory Standards) (M26-A). Compounds were diluted two-fold serially in DMSO and transferred to cation-adjusted Mueller Hinton broth (CAMHB; Becton Dickinson). 50 μL of compounds diluted in CAMHB was mixed with 100 μL of bacteria diluted in CAMHB in 96-well microtiter plates. The final number of micro-organisms in the assay was 5×10^5 c.f.u. per mL and the final concentration of DMSO in the assay was 1.25%. Assays were set up in duplicate and incubated at 37° C. for 18 h. The concentration of compound that inhibited visible growth was reported as the minimum inhibitory concentration (MIC).

The nature of data set [2]: Levels of bisphosphonated prodrugs in rat tibia in vivo. Particulars: for half-life: female, CD, tibia (bone); for concentration of prodrug present in bone, in words: single IV bolus (49: 18.8; 52: 15.8; 54: 17.4 mg/kg). Here is the method: In order to investigate the bone binding and rate of decomposition of bisphosphonated fluoroquinolone prodrugs in vivo, rats were treated with bisphosphonated moxifloxacin prodrug 52 or bisphosphonated gatifloxacin prodrug 49 or 54 and the drug content of their tibiae was analyzed at different time points after injection. Female CD rats (age, 57 to 70 days; n=5/group; Charles River, St-Constant, Canada) were administered a single bolus intravenous (tail vein) dose of compound 49, 52 or 54 (dissolved in 0.85% NaCl) at respectively 18.8 mg/kg (equivalent to 9 mg/kg of 15), 15.8 mg/kg (equivalent to 10 mg/kg of 3) and 17.4 mg/kg (equivalent to 10 mg/kg of 15) of body weight. Animals were humanely sacrificed at specified time points after i.v. dosing to evaluate the levels of 49, 52 or 54 in the bone. Tibiae were recovered by dissection, cleaned from soft tissues, ground using a metal ball mill (Retsch MM301™) and kept at −80° C. before determination of the drug concentration of the bone.
The experimentally obtained ground bone powder was suspended in 5% formic acid in methanol (500 mg/1.6 mL). The mixture was vortexed for 10 min and centrifuged for 10 min at 10 000 g. The resulting pellet was dried, weighed and used for the determination of the amount of bisphosphonated prodrug.
For the dosage of the prodrug in the tibia, the standards, QCs (Quality Controls) and blanks were prepared (in duplicate) as follows: to 20 mg of dry blank tibia powder were added a spiking solution (10 μL) of prodrug and 990 μL of buffer (0.1M tris-HCl, pH 7, 0.15M NaCl); the mixture was vortexed for 10 min (RT), centrifuged for 15 min at 10 000 g (RT), the supernatant discarded and the pellet kept for the cleavage procedure. The range of the standards (6 levels) was from 0.05 to 10 μM and the QC levels were 0.075, 0.75 and 7.5 μM.
To each standard, QC, blank and experimental sample tibia bone pellet (20 mg of dry weight) was added 500 μL 6N NaOH for the cleavage of the prodrug into the drug (moxifloxacin 3 or gatifloxacin 15). After an incubation at 50° C. for 1 hour (for 49) or 2 hours (for 52 and 54), the mixture was acidified with 6N HCl (500 μL) and the internal standard (gatifloxacin 15 for 52 and moxifloxacin 3 for 49 and 54) was added. After a centrifugation of 15 min at 10 000 g (RT), the supernatant was extracted on a Strata™ cartridge (30 mg/l ml), using 100% methanol as the eluent. The eluent was evaporated to dryness under a stream of argon and the dried residue was reconstituted in 200 μL of the mobile phase used in the LC/MS analysis by vortexing for 15 min. After centrifugation for 15 min at 10 000 g, 20 μL of the supernatant was injected into the LC/MS analyser.
The quantity of drug resulting from the cleavage of the prodrug was analyzed on an Agilent 1100™ series LC/MSD trap. The supernatant was injected into a Zorbax™ SB-Aq column (2×30 mm, 3.5μ), using 0.1% formic acid in water: 0.1% formic acid in acetonitrile (85:15) as the mobile phase at a flow rate of 0.3 mL/min. […] The detected ions were determined in single reaction mode (SRM).
For the determination of 52, moxifloxacin 3 was analyzed for m/z 402.2 and the internal standard (gatifloxacin 15) for m/z 376.1→332.1.
For the determination of 49 and 54, gatifloxacin 15 was analyzed for m/z 376.1→332.1 and the internal standard (moxifloxacin 3) was analyzed for m/z 402.2.

[3] abbreviates: rat, single IV bolus (52: 15.8 mg/kg; 54: 17.4 mg/kg), 7-28 days after injection, read-out: half-life of prodrug in bone (tibia) (converted).

The results in this text go back to patent publication US20080287396A1, “Phosphonated Fluoroquinolones, Antibacterial Analogs Thereof, and Methods for the Prevention and Treatment of Bone and Joint Infections” (TARGANTA THERAPEUTICA INC., priority 2005, published 2008).

≈ marks a conversion by molar mass, not a printed value. Where two headings read alike, the source gives them in different places.

Broadly, the half-life is the time in which the quantity being followed falls by half. With `COc1c(N2CCNC(C)C2)c(F)cc2c(=O)c(C(=O)OCC(=O)NC(P(=O)(O)O)P(=O)(O)O)cn(C3CC3)c12` (stereo not drawn) [Compound 54, (1,1-Bisphosphonomethylcarbamoyl)methyl 7-(3-methylpiperazin-1-yl)-1-cyclopropyl-6-fluoro-1,4-dihydro-8-methoxy-4-oxoquinoline-3-carboxylate], the MIC in data set [1] was 4 to 16 µg/mL (≈ 6.6 to 26.4 µM). In addition, the half-life in data set [2] (setting [3]) was 21 days. Further, in data set [2] (rat tibia), the “concentration of prodrug present in bone, in words” value is “high concentrations”.
For `COc1c(N2C[C@@H]3CCCN[C@@H]3C2)c(F)cc2c(=O)c(C(=O)OCC(=O)NC(P(=O)(O)O)P(=O)(O)O)cn(C3CC3)c12` [Compound 52, (1,1-Bisphosphonomethylcarbamoyl)methyl 1-cyclopropyl-6-fluoro-1,4-dihydro-7-((4aS,7aS)-octahydropyrrolo[3,4-b]pyridin-6-yl)-8-methoxy-4-oxoquinoline-3-carboxylate], the half-life in data set [2] (rat tibia, IV bolus 15.8 mg/kg, 5 min to 24 h, read-out: half-life for the accumulation process in bone) is less than 0.0417 days; in data set [2] (setting [3]) it was 20 days. For the same molecule, the “concentration of prodrug present in bone, in words” value in data set [2] (rat tibia) is on record as “high concentrations”.
